Patent publication US5188937A, “Layered sandwich assay method for chlamydia and materials therefor” (Becton, Dickinson and Company, priority 1991, dated 1993)

The compounds below were run against T1, Rabbit Liver Esterase (E.C. 3.1.1.1) (Oryctolagus cuniculus, UniProt P12337) (assay: Inhibition constants, esterase hydrolysis of o-nitrophenyl butyrate followed spectrophotometrically). Conditions: RLE; 50 mM Tris pH=8.0; enzyme and inhibitor incubated at ambient temperature for 20 minutes.
T1 construct: from tissue; host or cells: rabbit liver
Format: biochemical
Method: Inhibition constants were measured in 50 mM Tris pH=8.0. Enzyme and inhibitor were incubated at ambient temperature for 20 minutes. Substrate for the enzyme was then added and the rate of hydrolysis was followed spectrophotometrically. The substrate for PLE and RLE was o-nitro-phenylbutrate and for AChE was acetyl thiocholine and Ellman's reagent.

T1 sequence (P12337 19-565): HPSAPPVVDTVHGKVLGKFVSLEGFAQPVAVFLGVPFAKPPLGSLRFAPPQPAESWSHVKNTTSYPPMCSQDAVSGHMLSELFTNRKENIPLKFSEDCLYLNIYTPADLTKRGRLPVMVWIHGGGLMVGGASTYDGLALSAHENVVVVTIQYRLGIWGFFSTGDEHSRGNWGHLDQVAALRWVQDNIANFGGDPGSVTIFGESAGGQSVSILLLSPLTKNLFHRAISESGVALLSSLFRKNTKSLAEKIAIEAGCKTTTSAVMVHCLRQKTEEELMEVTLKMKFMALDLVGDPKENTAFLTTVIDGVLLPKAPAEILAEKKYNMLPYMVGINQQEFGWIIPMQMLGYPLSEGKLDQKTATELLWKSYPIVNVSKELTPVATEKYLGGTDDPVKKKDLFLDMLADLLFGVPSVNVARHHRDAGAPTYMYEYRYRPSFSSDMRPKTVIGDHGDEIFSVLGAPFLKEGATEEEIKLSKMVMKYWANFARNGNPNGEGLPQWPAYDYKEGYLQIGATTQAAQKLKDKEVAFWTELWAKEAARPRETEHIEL

Row | Compound | Ki
1 | O=C(CCc1ccc(O)cc1)C(F)(F)C(F)(F)F [1,1,1,2,2-pentafluoro-5-(4-hydroxyphenyl)-3-pentanone] | 800 nM
2 | O=C(Cc1ccc(O)cc1)C(F)(F)F [1,1,1-trifluoro-3-(4-hydroxyphenyl)propanone] | 2000 nM
3 | O=C(CCc1cccc(O)c1)C(F)(F)F [1,1,1-trifluoro-4-(3-hydroxyphenyl)-2-butanone] | 100 nM
4 | O=C(CCc1ccc(O)cc1)C(F)(F)F [1,1,1-trifluoro-4-(4-hydroxyphenyl)-2-butanone] | 20 nM
5 | O=C(CCCc1cccc(O)c1)C(F)(F)F [1,1,1-trifluoro-5-(3-hydroxyphenyl)-2-pentanone] | 170 nM
6 | O=C(CCCc1ccc(O)cc1)C(F)(F)F [1,1,1-trifluoro-5-(4-hydroxyphenyl)-2-pentanone] | 10 nM
7 | O=C(CCCCc1ccc(O)cc1)C(F)(F)F [1,1,1-trifluoro-6-(4-hydroxyphenyl)-2-hexanone] | 20 nM
